Measurements published in PubChem BioAssay AID588428 (NMMLSC, 2011).
Calls of active or inactive are those of the source.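 Rule for the calls: active = compounds whose thermal stabilization response is above zero, meaning they raise the protein's melting point; inactive = the rest.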

Target: Beta-adrenergic receptor kinase 1 (Homo sapiens) (UniProt P25098)
Experiment: direct GRK2 binders by thermal shift, orthogonal assay for GRK2 aptamer-displacement inhibitor project, biophysical, Thermofluor, set 1 (AID 588428)
Conditions: purified GRK2 thermal shift, ANS fluorescence; at 200 µM; hits give high values

Chain of Beta-adrenergic receptor kinase 1 (Homo sapiens) (P25098 whole entry, looked up): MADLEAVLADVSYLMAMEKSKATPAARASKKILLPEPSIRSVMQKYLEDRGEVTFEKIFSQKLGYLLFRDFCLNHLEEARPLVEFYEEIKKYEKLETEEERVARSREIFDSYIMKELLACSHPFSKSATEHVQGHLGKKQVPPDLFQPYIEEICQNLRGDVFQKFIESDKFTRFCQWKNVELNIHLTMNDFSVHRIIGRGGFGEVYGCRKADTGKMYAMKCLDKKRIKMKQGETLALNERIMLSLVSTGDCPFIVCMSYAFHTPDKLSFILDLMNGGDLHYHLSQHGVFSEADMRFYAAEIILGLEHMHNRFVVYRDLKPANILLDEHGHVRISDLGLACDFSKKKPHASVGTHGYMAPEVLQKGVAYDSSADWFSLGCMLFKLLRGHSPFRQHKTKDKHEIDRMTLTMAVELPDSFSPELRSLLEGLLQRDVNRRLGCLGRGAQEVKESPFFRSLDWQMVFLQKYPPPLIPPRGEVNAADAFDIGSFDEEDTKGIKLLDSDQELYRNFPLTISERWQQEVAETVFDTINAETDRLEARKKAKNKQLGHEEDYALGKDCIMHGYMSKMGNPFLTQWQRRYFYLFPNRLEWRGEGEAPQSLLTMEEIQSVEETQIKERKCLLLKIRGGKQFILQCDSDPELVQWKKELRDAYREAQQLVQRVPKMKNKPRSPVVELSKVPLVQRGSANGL

thermal stabilization response | SMILES
-35.6% (inactive) | CCc1ccccc1NC(=O)CCS(=O)(=O)c1ccc(Br)cc1
-114% (inactive) | COc1ccc(CNC(=O)CCS(=O)(=O)c2ccc(Br)cc2)cc1
-79.1% (inactive) | Cc1cc(=O)[nH]c(SCC(=O)NCc2ccco2)n1
-75% (inactive) | O=C(CCS(=O)(=O)c1ccc(Br)cc1)Nc1cc(F)ccc1F
108% | Cc1ccccc1NC(=O)CCS(=O)(=O)c1ccc(Br)cc1
-53% (inactive) | O=C(CCS(=O)(=O)c1ccc(Br)cc1)NCCc1ccc(Cl)cc1
-112% (inactive) | CCOc1ccc(CCNC(=O)CCS(=O)(=O)c2ccc(Br)cc2)cc1OCC
-5.78% (inactive) | Cc1cccc(N2CCN(C(=O)CCS(=O)(=O)c3ccc(Br)cc3)CC2C)c1 (stereo not given)
-176% (inactive) | Cc1cc2ccccc2n1CCNC(=O)c1cccs1
-152% (inactive) | O=C(O)C1CC(=O)N(c2ccc3c(c2)OCCO3)C1 (stereo not given)
